Values of other authors, collected in patent US20250059333A1, “BILAYER BIONIC DRUG-LOADED HYDROGEL, AND PREPARATION AND APPLICATION THEREOF” (Chengdu Hengkui Biotechnology Co., Ltd., priority 2022, published 2025).

Conditions: relative to glutaraldehyde, a commonly used chemical cross-linking agent

## COC(=O)C1=CO[C@@H](O)[C@@H]2C(CO)=CC[C@H]12 [genipin]
  toxicity lower than that of glutaraldehyde: 10000 times
